Results: ChEMBL document CHEMBL1127727, “Synthesis and structure-activity relationships of novel retinoid X receptor-selective retinoids” (J Med Chem, 1994)

Columns and labels:
[1] = target: T1, Retinoic acid receptor gamma (Homo sapiens, UniProt P13631); assay: Tested for binding affinity against [3H]-ATRA binding to retinoid receptor isoform (RAR gamma) expressed in baculovirus
T1 sequence (P13631 whole entry): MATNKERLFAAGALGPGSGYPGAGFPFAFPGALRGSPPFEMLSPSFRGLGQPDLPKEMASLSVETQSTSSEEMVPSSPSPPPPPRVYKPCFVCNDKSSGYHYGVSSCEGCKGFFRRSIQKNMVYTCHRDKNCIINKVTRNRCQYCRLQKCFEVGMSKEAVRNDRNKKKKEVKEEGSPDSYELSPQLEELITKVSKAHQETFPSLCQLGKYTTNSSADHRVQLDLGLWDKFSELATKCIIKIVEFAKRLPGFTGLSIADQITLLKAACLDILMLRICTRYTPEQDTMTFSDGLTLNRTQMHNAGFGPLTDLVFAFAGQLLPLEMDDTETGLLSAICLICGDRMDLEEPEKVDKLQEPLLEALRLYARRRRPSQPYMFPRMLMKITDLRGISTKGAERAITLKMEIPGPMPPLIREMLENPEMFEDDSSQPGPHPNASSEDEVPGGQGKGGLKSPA

[2] = target: T2, Retinoic acid receptor RXR-beta (Mus musculus, UniProt P28704); assay: Effective concentration against retinoid receptor isoform (RXR beta) expressed in CV-1 cells; type: cell-based
T2 sequence (P28704 whole entry): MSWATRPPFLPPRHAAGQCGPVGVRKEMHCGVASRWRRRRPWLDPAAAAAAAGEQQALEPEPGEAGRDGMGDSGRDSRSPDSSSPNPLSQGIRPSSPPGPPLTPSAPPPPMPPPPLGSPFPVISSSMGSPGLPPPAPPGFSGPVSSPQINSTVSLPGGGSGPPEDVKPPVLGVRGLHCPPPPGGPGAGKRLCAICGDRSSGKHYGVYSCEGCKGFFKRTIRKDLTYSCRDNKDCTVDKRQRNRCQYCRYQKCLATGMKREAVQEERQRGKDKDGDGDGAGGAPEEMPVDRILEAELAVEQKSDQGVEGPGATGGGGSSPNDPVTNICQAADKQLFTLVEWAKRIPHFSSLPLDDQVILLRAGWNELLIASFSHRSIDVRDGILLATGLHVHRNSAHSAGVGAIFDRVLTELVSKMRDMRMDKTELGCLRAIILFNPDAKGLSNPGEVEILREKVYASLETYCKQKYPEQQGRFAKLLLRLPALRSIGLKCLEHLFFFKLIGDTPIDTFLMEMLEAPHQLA

[3] = target: T3, Retinoic acid receptor beta (Homo sapiens, UniProt P10826); assay: Inhibition of [3H]ATRA binding to baculovirus expressed retinoid receptor RAR beta
T3 sequence (P10826 whole entry): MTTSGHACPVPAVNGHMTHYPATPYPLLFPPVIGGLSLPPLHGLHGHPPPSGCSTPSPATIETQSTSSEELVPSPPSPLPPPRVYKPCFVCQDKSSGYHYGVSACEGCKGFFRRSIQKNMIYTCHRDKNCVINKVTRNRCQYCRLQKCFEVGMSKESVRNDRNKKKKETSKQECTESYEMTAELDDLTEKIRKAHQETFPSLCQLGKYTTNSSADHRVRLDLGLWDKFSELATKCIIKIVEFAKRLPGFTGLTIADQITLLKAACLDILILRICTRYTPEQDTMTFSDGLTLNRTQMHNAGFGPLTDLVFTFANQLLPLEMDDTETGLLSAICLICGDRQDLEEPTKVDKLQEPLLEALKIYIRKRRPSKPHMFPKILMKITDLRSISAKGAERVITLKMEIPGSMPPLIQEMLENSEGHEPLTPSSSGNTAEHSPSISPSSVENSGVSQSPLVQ

[4] = target: T4, Retinoic acid receptor alpha (Homo sapiens, UniProt P10276); assay: Effective concentration against retinoid receptor isoform (RAR alpha) expressed in CV-1 cells; type: cell-based
T4 sequence (P10276 whole entry): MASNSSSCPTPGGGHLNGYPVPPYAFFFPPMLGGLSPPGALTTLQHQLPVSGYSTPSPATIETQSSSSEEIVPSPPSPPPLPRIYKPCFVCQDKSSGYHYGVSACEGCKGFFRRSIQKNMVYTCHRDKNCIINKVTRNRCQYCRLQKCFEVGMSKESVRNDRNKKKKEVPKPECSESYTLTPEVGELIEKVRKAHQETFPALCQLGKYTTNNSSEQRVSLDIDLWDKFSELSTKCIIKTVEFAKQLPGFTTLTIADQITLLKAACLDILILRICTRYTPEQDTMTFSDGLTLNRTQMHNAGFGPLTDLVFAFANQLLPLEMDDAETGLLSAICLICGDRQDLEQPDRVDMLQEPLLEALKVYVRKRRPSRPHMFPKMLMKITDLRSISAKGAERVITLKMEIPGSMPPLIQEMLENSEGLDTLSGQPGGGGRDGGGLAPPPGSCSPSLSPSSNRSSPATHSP

[5] = target: T2, Retinoic acid receptor RXR-beta; assay: Inhibition of [3H]9-cis-RA binding to baculovirus expressed retinoid receptor RXR beta
[6] = target: T5, Retinoic acid receptor RXR-gamma (Mus musculus, UniProt P28705); assay: Effective concentration against retinoid receptor isoform (RXR gamma) expressed in CV-1 cells; type: cell-based
T5 sequence (P28705 whole entry): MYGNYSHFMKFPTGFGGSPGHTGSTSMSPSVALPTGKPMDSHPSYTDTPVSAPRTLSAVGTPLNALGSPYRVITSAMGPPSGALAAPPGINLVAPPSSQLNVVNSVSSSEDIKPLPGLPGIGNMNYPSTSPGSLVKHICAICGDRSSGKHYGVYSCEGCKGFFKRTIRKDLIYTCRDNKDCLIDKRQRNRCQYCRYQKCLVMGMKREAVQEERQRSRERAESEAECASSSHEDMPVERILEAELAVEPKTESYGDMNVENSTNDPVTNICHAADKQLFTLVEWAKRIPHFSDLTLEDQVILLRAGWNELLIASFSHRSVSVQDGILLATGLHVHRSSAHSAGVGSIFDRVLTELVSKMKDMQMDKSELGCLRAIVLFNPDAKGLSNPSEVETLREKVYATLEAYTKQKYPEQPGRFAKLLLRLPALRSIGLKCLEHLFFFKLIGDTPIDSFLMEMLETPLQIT

[7] = target: T4, Retinoic acid receptor alpha; assay: Inhibition of [3H]-ATRA binding to baculovirus expressed retinoid receptor RAR alpha
[8] = target: T3, Retinoic acid receptor beta; assay: Effective concentration against retinoid receptor isoform (RAR beta) expressed in CV-1 cells; type: cell-based
[9] = target: T1, Retinoic acid receptor gamma; assay: Effective concentration against retinoid receptor isoform (RAR gamma) expressed in CV-1 cells; type: cell-based
[10] = target: T6, Retinoic acid receptor RXR-alpha (Homo sapiens, UniProt P19793)
T6 sequence (P19793 whole entry): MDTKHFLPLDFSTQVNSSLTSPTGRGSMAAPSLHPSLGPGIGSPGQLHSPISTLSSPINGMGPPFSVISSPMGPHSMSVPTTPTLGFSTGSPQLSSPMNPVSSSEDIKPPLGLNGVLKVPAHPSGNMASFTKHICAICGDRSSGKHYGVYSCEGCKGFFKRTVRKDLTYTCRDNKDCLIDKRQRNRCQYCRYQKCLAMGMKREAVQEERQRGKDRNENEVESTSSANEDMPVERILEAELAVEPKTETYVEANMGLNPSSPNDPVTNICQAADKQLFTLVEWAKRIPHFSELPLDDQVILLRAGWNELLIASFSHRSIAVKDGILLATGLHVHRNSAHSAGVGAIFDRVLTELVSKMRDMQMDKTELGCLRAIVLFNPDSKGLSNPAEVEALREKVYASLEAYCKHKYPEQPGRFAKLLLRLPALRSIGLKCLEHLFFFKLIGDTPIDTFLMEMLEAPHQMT
Description: Inhibition of [3H]9-cis-RA binding to baculovirus expressed retinoid receptor RXR alpha

[11] = target: T6, Retinoic acid receptor RXR-alpha; remark: listed apart in the source
Description: Effective concentration against retinoid receptor isoform (RXR alpha) expressed in CV-1 cells

[12] = target: T5, Retinoic acid receptor RXR-gamma; assay: Inhibition of [3H]9-cis-RA binding to baculovirus expressed retinoid receptor RXR gamma

Row | Compound | Kd [1] | EC50 [2] | Kd [3] | EC50 [4] | Kd [5] | EC50 [6] | Kd [7] | EC50 [8] | EC50 [9] | Kd [10] | EC50 [11] | Kd [12]
1 | C=C(c1ccc(C(=O)O)cc1)c1cc2c(cc1CC)C(C)(C)CCC2(C)C | > 1000 nM | 145 nM | > 1000 nM | > 10000 nM | 44 nM | 136 nM | > 1000 nM | > 10000 nM | > 10000 nM | 31 nM | 115 nM | 59 nM
2 | C=C(c1ccc(C(=O)O)cc1)c1cc2c(cc1Br)C(C)(C)CCC2(C)C | > 1000 nM | 59 nM | > 1000 nM | > 10000 nM | 34 nM | 43 nM | > 1000 nM | > 10000 nM | > 10000 nM | 28 nM | 51 nM | 35 nM
3 | CC(C)c1cc2c(cc1C(=O)c1ccc(C(=O)O)cc1)C(C)(C)CCC2(C)C | > 1000 nM | 313 nM | > 1000 nM | > 10000 nM | 155 nM | 357 nM | > 1000 nM | > 10000 nM | > 10000 nM | 113 nM | 381 nM | 309 nM
4 | C=C(c1ccc(C(=O)O)cc1)c1ccc2c(c1)C(C)(C)CCC2(C)C | 887 nM | 486 nM | 909 nM | > 10000 nM | 199 nM | 404 nM | 944 nM | 304 nM | 266 nM | 150 nM | 409 nM | 290 nM
5 | CCc1cc2c(cc1C(=O)c1ccc(C(=O)O)cc1)C(C)(C)CCC2(C)C | > 1000 nM | 810 nM | > 1000 nM | > 10000 nM | 232 nM | 384 nM | > 1000 nM | > 10000 nM | > 10000 nM | 195 nM | 514 nM | 424 nM
6 | CC1(C)CCC(C)(C)c2cc(C(=O)c3ccc(C(=O)O)cc3)c(F)cc21 | > 1000 nM | 1980 nM | > 1000 nM | 2860 nM | 902 nM | 2250 nM | > 1000 nM | 395 nM | 1020 nM | 706 nM | 1820 nM | 911 nM
7 | C=C(c1ccc(C(=O)O)cc1)c1cc2c(cc1CCC)C(C)(C)CCC2(C)C | > 1000 nM | > 10000 nM | > 1000 nM | > 10000 nM | 236 nM | > 10000 nM | > 1000 nM | > 10000 nM | > 10000 nM | 137 nM | > 10000 nM | 332 nM
8 | CC1(C)CCC(C)(C)c2cc(C(=O)c3ccc(C(=O)O)cc3)c(Cl)cc21 | > 1000 nM | 262 nM | > 1000 nM | > 10000 nM | 110 nM | 225 nM | > 1000 nM | > 10000 nM | > 10000 nM | 130 nM | 294 nM | 135 nM
9 | C=C(c1ccc(C(=O)O)cc1)c1cc2c(cc1F)C(C)(C)CCC2(C)C | > 1000 nM | 189 nM | > 1000 nM | > 10000 nM | 108 nM | 383 nM | > 1000 nM | 337 nM | 397 nM | 69 nM | 197 nM | 94 nM
10 | C=C(c1ccc(C(=O)O)cc1)c1cc2c(cc1O)C(C)(C)CCC2(C)C | > 1000 nM | 202 nM | > 1000 nM | > 10000 nM | 822 nM | 558 nM | > 1000 nM | 2240 nM | > 10000 nM | 487 nM | 455 nM | 812 nM
11 | C=C(c1ccc(C(=O)O)cc1)c1cc2c(cc1C(C)C)C(C)(C)CCC2(C)C | > 1000 nM | 289 nM | > 1000 nM | > 10000 nM | 75 nM | 227 nM | > 1000 nM | > 10000 nM | > 10000 nM | 55 nM | 207 nM | 142 nM
12 | C=C(c1ccc(C(=O)O)cc1)c1cc2c(cc1Cl)C(C)(C)CCC2(C)C | > 1000 nM | 33 nM | > 1000 nM | > 10000 nM | 44 nM | 36 nM | > 1000 nM | 436 nM | 1450 nM | 27 nM | 52 nM | 44 nM
13 | CC1(C)CCC(C)(C)c2cc(C(=O)c3ccc(C(=O)O)cc3)c(Br)cc21 | > 1000 nM | 120 nM | > 1000 nM | > 10000 nM | 150 nM | 261 nM | > 1000 nM | > 10000 nM | > 10000 nM | 105 nM | 332 nM | 150 nM
14 | CC1(C)CCC(C)(C)c2cc(C(=O)c3ccc(C(=O)O)cc3)c(O)cc21 | > 1000 nM | > 10000 nM | > 1000 nM | > 10000 nM | > 1000 nM | > 10000 nM | > 1000 nM | > 10000 nM | > 10000 nM | 818 nM | > 10000 nM | > 1000 nM
